Among the data in PubChem BioAssay (NCI) are GI50 and TGI values, retold here.

Some test systems named below: MDA-MB-435; SR leukemia; ACHN renal; PC-3 prostate; HS 578T breast; NCI-H460 lung; MDA-MB-231 breast; OVCAR-3 ovarian; SF-268 CNS; SNB-75 CNS.
Common to all, as to test: DTP human tumour cell line panel, 48 h

Structures are written as SMILES.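 A five-concentration, 48-hour dose response in 96-well plates underlies each endpoint, interpolated linearly between surrounding concentrations. GI50 marks 50% less growth. Definition used: TGI = concentration required for complete inhibition of growth.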 A value given as a limit tells only on which side of the number the result lay.

The term GI50 denotes the concentration at which growth is held to half of that of the control. By TGI is commonly meant the concentration giving total growth inhibition. A low value points to greater sensitivity of the cells.

`C#C[C@]1(O)CC[C@H]2[C@@H]3CC=C4c5nc(N)sc5CC[C@]4(C)[C@H]3CC[C@@]21C`: the GI50 in the assay on MDA-MB-435 was 2.22 µM; with SR leukemia it was 2.31 µM; with ACHN renal, 5.25 µM; in the assay with PC-3 prostate, 3.66 µM; with HS 578T breast, 2.55 µM; in the assay on NCI-H460 lung it was 3.78 µM. Moreover, the GI50 in the assay with MDA-MB-231 breast was 3.07 µM; in the assay with OVCAR-3 ovarian, 3.1 µM; with SF-268 CNS it was 3.57 µM. Further, the concentration for total growth inhibition (TGI) with MDA-MB-435 stood at 7.2 µM; with SR leukemia it was 9.18 µM; with ACHN renal, 30.2 µM; with PC-3 prostate, 19.7 µM; in the assay with HS 578T breast, 7.94 µM; with NCI-H460 lung it was 16.4 µM. Moreover, the results for the TGI in the assay on MDA-MB-231 breast, with OVCAR-3 ovarian and in the assay with SF-268 CNS were 9.67 µM, 9.84 µM and 16.5 µM, respectively.
For `Cc1cc(S(N)(=O)=O)c(S/C(=N\NS(=O)(=O)c2ccccc2)c2ccc(Cl)cc2)cc1Cl`, the GI50 in the assay on MDA-MB-435 is > 100 µM; with SR leukemia, 49.2 µM; in the assay on ACHN renal, > 100 µM; with PC-3 prostate, 38.9 µM; in the assay with HS 578T breast, 39.8 µM; with NCI-H460 lung, 65.4 µM. Further, the GI50 in the assay on MDA-MB-231 breast was > 100 µM; in the assay with OVCAR-3 ovarian, 47.6 µM; in the assay with SF-268 CNS, > 100 µM. In addition, the TGI in the assay on MDA-MB-435, in the assay with SR leukemia, in the assay with ACHN renal, in the assay on PC-3 prostate, in the assay with HS 578T breast and in the assay with NCI-H460 lung was > 100 µM throughout. In addition, the TGI with MDA-MB-231 breast, with OVCAR-3 ovarian and in the assay on SF-268 CNS was > 100 µM each time.
Turning to `N#[N+]c1ccc(Nc2ccccc2)cc1`, the GI50 with MDA-MB-435 was 1.83 mg/L; in the assay on SR leukemia, > 50 mg/L; in the assay with ACHN renal, > 50 mg/L; in the assay with PC-3 prostate it was > 50 mg/L; in the assay on SNB-75 CNS, > 50 mg/L; in the assay on HS 578T breast, > 50 mg/L. Further, the GI50 in the assay on MDA-MB-231 breast, in the assay on OVCAR-3 ovarian and with SF-268 CNS was > 50 mg/L each time. Moreover, the TGI in the assay with MDA-MB-435 was 17.7 mg/L; with SR leukemia it was > 50 mg/L; in the assay on ACHN renal, > 50 mg/L; in the assay with PC-3 prostate, > 50 mg/L; in the assay with SNB-75 CNS, > 50 mg/L; with HS 578T breast it was > 50 mg/L. Also, the TGI in the assay on MDA-MB-231 breast, in the assay with OVCAR-3 ovarian and in the assay with SF-268 CNS was > 50 mg/L each time.
As for `OCC(O)C(O)C(O)C(O)c1nnc2c(-c3ccccc3)nc3ccccc3n12` (stereo not given), the GI50 in the assay with MDA-MB-435 is > 100 µM; with ACHN renal, > 100 µM; in the assay with PC-3 prostate, 43.2 µM; with SNB-75 CNS, > 100 µM; with HS 578T breast, 57.9 µM; with NCI-H460 lung, > 100 µM. The GI50 with MDA-MB-231 breast was 32.8 µM; in the assay with OVCAR-3 ovarian it was > 100 µM; with SF-268 CNS, > 100 µM. Also, the TGI in the assay on MDA-MB-435, in the assay on ACHN renal, in the assay on PC-3 prostate, in the assay on SNB-75 CNS, with HS 578T breast and with NCI-H460 lung was > 100 µM throughout. The TGI in the assay with MDA-MB-231 breast, with OVCAR-3 ovarian and in the assay with SF-268 CNS was > 100 µM in each case.
Consider `CCn1c(-c2nonc2N)nc2cnc(Oc3cccc(NC(=O)c4ccc(N(C)C)cc4)c3)cc21`, for which the GI50 was > 25 µM in the assay with MDA-MB-435; > 25 µM in the assay with ACHN renal; 12.4 µM with PC-3 prostate; 0.106 µM in the assay with SNB-75 CNS; 0.0623 µM with HS 578T breast; > 25 µM with NCI-H460 lung. In addition, the GI50 with MDA-MB-231 breast is > 17 µM; in the assay with OVCAR-3 ovarian, > 25 µM; in the assay on SF-268 CNS it was 2.48 µM. Also, the TGI in the assay on MDA-MB-435, in the assay with ACHN renal, in the assay with PC-3 prostate, in the assay with SNB-75 CNS, in the assay with HS 578T breast and with NCI-H460 lung was > 25 µM in each case. The TGI in the assay with MDA-MB-231 breast, with OVCAR-3 ovarian and in the assay with SF-268 CNS was > 25 µM each time.
With `Clc1ccc(CN2CCCN(Cc3ccc(Cl)cc3)C2c2cc3ccccc3c3ccccc23)cc1`, the TGI is > 100 µM in the assay on MDA-MB-435; > 100 µM in the assay with SR leukemia; > 100 µM with ACHN renal; > 100 µM in the assay with PC-3 prostate; 78.5 µM in the assay with SNB-75 CNS; > 100 µM with HS 578T breast. Also, the TGI with MDA-MB-231 breast, in the assay on OVCAR-3 ovarian and in the assay on SF-268 CNS was > 100 µM each time.
Turning to `OCCN(CO)CO`, the concentration for total growth inhibition (TGI) in the assay on MDA-MB-435, with ACHN renal, with PC-3 prostate, with SNB-75 CNS, with HS 578T breast and in the assay with NCI-H460 lung was > 100 µM each time. The TGI in the assay with MDA-MB-231 breast, with OVCAR-3 ovarian and with SF-268 CNS was > 100 µM throughout.
For `CCCCCC[C@H]1C(=O)O[C@H](C)[C@H](NC(=O)c2cccc(NC=O)c2OC)C(=O)O[C@@H](C)[C@@H]1OC(=O)CCC` (tested in a mixture with another compound), the GI50 in the assay on MDA-MB-435 was 9.6 µM; in the assay with SR leukemia, 3.64 µM; with ACHN renal, 10.1 µM; in the assay on PC-3 prostate it was 6.23 µM; with HS 578T breast, 13.1 µM; with NCI-H460 lung, 4.89 µM. Further, the GI50 with MDA-MB-231 breast was 13.5 µM; in the assay with OVCAR-3 ovarian, 11.1 µM; with SF-268 CNS, 13.7 µM. The total growth inhibition concentration (TGI) with MDA-MB-435 is 27.9 µM; in the assay with SR leukemia, 18.8 µM; with ACHN renal, 23.1 µM; in the assay with PC-3 prostate, 26.7 µM; with HS 578T breast, 38.6 µM; with NCI-H460 lung, 25.5 µM. For the same compound, the TGI came out at 34.2 µM with MDA-MB-231 breast, 24.9 µM with OVCAR-3 ovarian and 36.6 µM with SF-268 CNS.
As for `COc1cc(N(C)C)c(OC)cc1C=C1C=CC=C1`, the TGI with MDA-MB-435, in the assay on SR leukemia, with ACHN renal, with PC-3 prostate, in the assay with HS 578T breast and in the assay with NCI-H460 lung was > 100 µM throughout. Also, the TGI with MDA-MB-231 breast, in the assay on OVCAR-3 ovarian and with SF-268 CNS was > 100 µM each time.
